Results as given in patent US20060257539A1 (priority 2005, published 2006).

Assays:
[1] = tested on: all strains of C. botulinum tested (vegetative cells); type: cell-based, Clostridium botulinum
[2] = tested on: C. botulinum Toxin type E spores; type: cell-based, Clostridium botulinum; conditions: pH 5.5
[3] = tested on: C. botulinum Alaska E vegetative cells; type: cell-based, Clostridium botulinum
[4] = tested on: C. botulinum Toxin type B (non-proteolytic) spores; type: cell-based, Clostridium botulinum; conditions: pH 5.5
[5] = tested on: C. botulinum E mixed strains vegetative cells; type: cell-based, Clostridium botulinum
[6] = tested on: C. botulinum Beluga E (Non-proteolytic) vegetative cells; type: cell-based, Clostridium botulinum; conditions: pH 5.5
[7] = tested on: C. botulinum 53B (proteolytic) vegetative cells; type: cell-based, Clostridium botulinum; conditions: pH 5.5
[8] = tested on: Lactococcus lactis subsp. cremoris; type: cell-based
[9] = tested on: Lactococcus lactis subsp. cremoris; type: cell-based; remark: listed apart in the source
[10] = tested on: C. botulinum Alaska E (non-proteolytic) vegetative cells; type: cell-based, Clostridium botulinum; conditions: pH 5.5
[11] = tested on: C. botulinum Beluga E vegetative cells; type: cell-based, Clostridium botulinum
[12] = tested on: Lactococcus lactis subsp. cremoris; type: cell-based; remark: listed apart in the source
[13] = tested on: C. botulinum 33A (proteolytic) vegetative cells; type: cell-based, Clostridium botulinum; conditions: pH 5.5
[14] = tested on: C. botulinum Toxin type B (proteolytic) spores; type: cell-based, Clostridium botulinum; conditions: pH 5.5
[15] = tested on: C. botulinum Toxin type A (proteolytic) spores; type: cell-based, Clostridium botulinum; conditions: pH 5.5
[16] = standard plate well diffusion assay of RTD beverage; type: cell-based
[17] = tested on: all tested C. botulinum strains (spores); type: cell-based, Clostridium botulinum
Lactobacillus plantarum = type: cell-based
[18] = comparative antimicrobial activity in various foodstuff or media (summary table); parameters: key: + means antimicrobial activity, multiple + indicates increased antimicrobial activity; ++: multiple + indicates increased antimicrobial activity; +++: multiple + indicates increased antimicrobial activity; − means no antimicrobial activity

## ε-poly-L-lysine
[1]
  inhibition of growth of C. botulinum strains from vegetative cells (in words): did not show clear or strong inhibition
[2]
  Inhibition zone against indicator C. botulinum strain Toxin type E: 0 mm
[3]
  Inhibition zone against indicator C. botulinum strain Alaska E: 0 mm
[4]
  Inhibition zone against indicator C. botulinum strain Toxin type B (non-proteolytic): 0 mm
[5]
  Inhibition zone against indicator C. botulinum E mixed strains: 0 mm
[6]
  Inhibition zone against indicator C. botulinum strain Beluga E (Non-proteolytic): 0 mm
[7]
  Inhibition zone against indicator C. botulinum strain 53B (proteolytic): 0 mm
[8]
  Apparent nisin activity: 0 IU/g
  effect on measurable nisin activity in dairy product (in words): increased the measurable nisin activity
[9]
  Inhibition zone: 0 mm
[10]
  Inhibition zone against indicator C. botulinum strain Alaska E (non-proteolytic): 0 mm
[11]
  Inhibition zone against indicator C. botulinum strain Beluga E: 0 mm
[12]
  effect on apparent nisin activity (in words): significantly increased
[13]
  Inhibition zone against indicator C. botulinum strain 33A (proteolytic): 0 mm
[14]
  Inhibition zone against indicator C. botulinum strain Toxin type B (proteolytic): 0 mm
[15]
  Inhibition zone against indicator C. botulinum strain Toxin type A (proteolytic): 0 mm
[16]; very low levels of ε-poly-L-lysine (50 ppm) added to nisin 250 IU/ml
  effect on apparent nisin activity in RTD beverage (in words): significantly increased
[16]; ε-poly-L-lysine 50 ppm alone, fruit juice-containing RTD beverage
  Inhibition zone: 0 mm
[17]
  inhibition of growth of C. botulinum from spores (in words): unable to inhibit the growth of C. botulinum from spores
Lactobacillus plantarum
  inhibition of growth of L. plantarum (in words): very limited inhibition on the initial growth of L. plantarum
[18]; BHI broth
  antimicrobial activity: −
[18]; Beverages
  antimicrobial activity: +
[18]; Brain heart infusion agar (BHI)
  antimicrobial activity: −
[18]; Green beans packed in water
  antimicrobial activity: −
[18]; Hot dogs
  antimicrobial activity: −
[18]; Savory cream
  antimicrobial activity: −
